The target of the assay is T1, AsPC-1 HiBiT-KRASG12D (Homo sapiens, UniProt P01116, G12D).
T1 construct: insert the HiBiT tag onto the N-terminus of one or more of the endogenous KRAS alleles; endogenous in cells; host or cells: AsPC-1 (ATCC CRL-1682), CRISPR-Cas9 knock-in clone, one tagged allele
The assay can be described thus: HiBiT degradation assay (G12D), AsPC-1 HiBiT-KRASG12D cells. It is filed as cell-based. The settings on record: 24 hours treatment; for DC50: AsPC-1 HiBiT-KRASG12D cells, HiBiT luminescence; for Dmax: ASPC1, AsPC-1 HiBiT-KRASG12D cells, maximum degradation observed. The procedure, abridged:
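AsPC-1 cells (homozygous G12D) carrying a CRISPR knock-in N-terminal HiBiT tag on endogenous KRAS were treated with compounds for 24 hours at 37° C, 5% CO2, in triplicate. Alamar blue viability was read first, then cells were washed and lysed with Nano-Glo HiBiT reagent for 45 minutes before luminescence reading.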

Bounds are passed on as bounds.

T1 sequence (P01116 1-188 isoform P01116-2 G12D): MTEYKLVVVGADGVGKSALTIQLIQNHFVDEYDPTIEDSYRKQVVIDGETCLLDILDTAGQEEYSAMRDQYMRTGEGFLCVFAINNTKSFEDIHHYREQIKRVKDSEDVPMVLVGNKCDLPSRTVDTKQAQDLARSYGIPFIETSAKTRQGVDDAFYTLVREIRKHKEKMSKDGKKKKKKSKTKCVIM

Consider `CCc1cccc2cc(O)cc(-c3ncc4c(N5CC6CCC(C5)N6)nc(OCCN5CCC(COc6cc([C@@H](C(=O)N7C[C@H](O)C[C@H]7C(=O)N[C@@H](C)c7ccc(-c8ccnn8C)cc7)C(C)C)on6)CC5)nc4c3F)c12` (relative stereo) [Compound 142, (2S,4R*)-1-[(2S)-2-{3-[(1-{2-[(4-{3,8-diazabicyclo[3.2.1]octan-3-yl}-7-(8-ethyl-3-hydroxynaphthalen-1-yl)-8-fluoropyrido[4,3-d]pyrimidin-2-yl)oxy]ethyl}piperidin-4-yl)methoxy]-1,2-oxazol-5-yl}-3-methylbutanoyl]-4-hydroxy-N-[(1S)-1-[4-(1-methyl-1H-pyrazol-5-yl)phenyl]ethyl]pyrrolidine-2-carboxamide], for which the DC50 is greater than 3000 nM. In turn, `Cc1ncsc1-c1ccc([C@H](C)NC(=O)[C@@H]2C[C@@H](O)CN2C(=O)[C@H](c2cc(OC3CN(C(=O)OC[C@@H]4CC[C@@H](COc5nc(N6CC7CCC(C6)N7)c6cnc(-c7cc(O)cc(Cl)c7C7CC7)c(F)c6n5)N4C)C3)no2)C(C)C)cc1` [Compound 287] gave a Dmax of less than 20% and a DC50 of 1000 to 3000 nM.

For `CCc1cccc2cc(O)cc(-c3ncc4c(N5CC6CCC(C5)N6)nc(OC[C@@]56CCCN5[C@H](COC(=O)N5CC(COc7cc([C@H](C(=O)N8C[C@H](O)C[C@H]8C(=O)N[C@@H](C)c8ccc(-c9scnc9C)cc8)C(C)C)on7)C5)CC6)nc4c3F)c12` [Compound 114, [(3S,7aS)-7a-{[(4-{3,8-diazabicyclo[3.2.1]octan-3-yl}-7-(8-ethyl-3-hydroxynaphthalen-1-yl)-8-fluoropyrido[4,3-d]pyrimidin-2-yl)oxy]methyl}-hexahydro-1H-pyrrolizin-3-yl]methyl 3-[({5-[(2R)-1-[(2S,4R)-4-hydroxy-2-{[(1S)-1-[4-(4-methyl-1,3-thiazol-5-yl)phenyl]ethyl]carbamoyl}pyrrolidin-1-yl]-3-methyl-1-oxobutan-2-yl]-1,2-oxazol-3-yl}oxy)methyl]azetidine-1-carboxylate], the Dmax was in the range of 80 to 100% and the DC50 is less than 600 nM. For `CCc1cccc2cc(O)cc(-c3ncc4c(N5CC6CCC(C5)N6)nc(OC[C@@]56CCCN5[C@H](CN5CCN(c7cc([C@H](C(=O)N8C[C@H](O)C[C@H]8C(=O)N[C@@H](C)c8ccc(-c9scnc9C)cc8)C(C)C)on7)CC5)CC6)nc4c3F)c12` [Compound 94, (2S,4R)-1-[(2R)-2-[3-(4-{[(3S,7aS)-7a-{[(4-{3,8-diazabicyclo[3.2.1]octan-3-yl}-7-(8-ethyl-3-hydroxynaphthalen-1-yl)-8-fluoropyrido[4,3-d]pyrimidin-2-yl)oxy]methyl}-hexahydro-1H-pyrrolizin-3-yl]methyl}piperazin-1-yl)-1,2-oxazol-5-yl]-3-methylbutanoyl]-4-hydroxy-N-[(1S)-1-[4-(4-methyl-1,3-thiazol-5-yl)phenyl]ethyl]pyrrolidine-2-carboxamide] the same measures were 80 to 100% and less than 600 nM.

`CCc1cccc2cc(O)cc(-c3ncc4c(N5CC6CCC(C5)N6)nc(O[C@H](C)CN5CCC6(CC5)CN(c5cc([C@H](C(=O)N7C[C@H](O)C[C@H]7C(=O)N[C@@H](C)c7ccc(-c8scnc8C)cc7)C(C)C)on5)C6)nc4c3F)c12` [Compound 25, (2S,4R)-1-[(2R)-2-(3-{7-[(2R)-2-[(4-{3,8-diazabicyclo[3.2.1]octan-3-yl}-7-(8-ethyl-3-hydroxynaphthalen-1-yl)-8-fluoropyrido[4,3-d]pyrimidin-2-yl)oxy]propyl]-2,7-diazaspiro[3.5]nonan-2-yl}-1,2-oxazol-5-yl)-3-methylbutanoyl]-4-hydroxy-N-[(1S)-1-[4-(4-methyl-1,3-thiazol-5-yl)phenyl]ethyl]pyrrolidine-2-carboxamide] showed a Dmax of 20 to 60% and a DC50 of 600 to 1000 nM.

For `CCc1cccc2cc(O)cc(-c3ncc4c(N5CC6CCC(C5)N6)nc(OC[C@@H]5CC[C@]6(COC(=O)N7CCN(c8cc([C@H](C(=O)N9C[C@H](O)C[C@H]9C(=O)N[C@@H](C)c9ccc(-c%10scnc%10C)cc9)C(C)C)on8)CC7)CCCN56)nc4c3F)c12` [Compound 342, [(3S,8S)-3-[[4-(3,8-diazabicyclo[3.2.1]octan-3-yl)-7-(8-ethyl-3-hydroxy-1-naphthyl)-8-fluoro-pyrido[4,3-d]pyrimidin-2-yl]oxymethyl]-1,2,3,5,6,7-hexahydropyrrolizin-8-yl]methyl 4-[5-[(1R)-1-[(2S,4R)-4-hydroxy-2-[[(1S)-1-[4-(4-methylthiazol-5-yl)phenyl]ethyl]carbamoyl]pyrrolidine-1-carbonyl]-isobutyl]isoxazol-3-yl]piperazine-1-carboxylate], the Dmax was in the range of 80 to 100% and the DC50 was less than 600 nM.

In turn, `C#Cc1c(F)ccc2cc(O)cc(-c3ncc4c(N5CC6CCC(C5)N6)nc(OCCN5CCC6(CC5)CC(Oc5cc([C@H](C(=O)N7C[C@H](O)C[C@H]7C(=O)N[C@@H](C)c7ccc(-c8scnc8C)cc7)C(C)C)on5)C6)nc4c3F)c12` [Compound 161, (2S,4R)-1-[(2R)-2-{3-[(7-{2-[(4-{3,8-diazabicyclo[3.2.1]octan-3-yl}-7-(8-ethynyl-7-fluoro-3-hydroxynaphthalen-1-yl)-8-fluoropyrido[4,3-d]pyrimidin-2-yl)oxy]ethyl}-7-azaspiro[3.5]nonan-2-yl)oxy]-1,2-oxazol-5-yl}-3-methylbutanoyl]-4-hydroxy-N-[(1S)-1-[4-(4-methyl-1,3-thiazol-5-yl)phenyl]ethyl]pyrrolidine-2-carboxamide] registered a Dmax of 80 to 100% and a DC50 of less than 600 nM. Take `CCc1cccc2cc(O)cc(-c3ncc4c(N5CC6CCC(C5)N6)nc(OCCN5CCC(F)(CN6CCN(c7cc([C@@H](C(=O)N8C[C@H](O)C[C@H]8C(=O)N[C@@H](C)c8ccc(-c9scnc9C)cc8)C(C)C)on7)C[C@@H]6C)CC5)nc4c3F)c12` [Compound 196, (2S,4R)-1-[(2S)-2-{3-[(3S)-4-[(1-{2-[(4-{3,8-diazabicyclo[3.2.1]octan-3-yl}-7-(8-ethyl-3-hydroxynaphthalen-1-yl)-8-fluoropyrido[4,3-d]pyrimidin-2-yl)oxy]ethyl}-4-fluoropiperidin-4-yl)methyl]-3-methylpiperazin-1-yl]-1,2-oxazol-5-yl}-3-methylbutanoyl]-4-hydroxy-N-[(1S)-1-[4-(4-methyl-1,3-thiazol-5-yl)phenyl]ethyl]pyrrolidine-2-carboxamide]: the Dmax lay in the range of 20 to 60% and the 50% degradation concentration (DC50) lay within 600 to 1000 nM. Taken in the same sequence, the figures for `CCc1cccc2cccc(-c3ncc4c(N5CC6CCC(C5)N6)nc(OC[C@]56CCCN5[C@H](COc5cc([C@@H](C(=O)N7C[C@H](O)C[C@H]7C(=O)N[C@@H](C)c7ccc(-c8scnc8C)cc7)C(C)C)on5)CC6)nc4c3F)c12` [Compound 310, (2S,4R)-1-[(2S)-2-[3-[[(3S,8R)-8-[[4-(3,8-diazabicyclo[3.2.1]octan-3-yl)-7-(8-ethyl-1-naphthyl)-8-fluoro-pyrido[4,3-d]pyrimidin-2-yl]oxymethyl]-1,2,3,5,6,7-hexahydropyrrolizin-3-yl]methoxy]isoxazol-5-yl]-3-methyl-butanoyl]-4-hydroxy-N-[(1S)-1-[4-(4-methylthiazol-5-yl)phenyl]ethyl]pyrrolidine-2-carboxamide] were 80 to 100% and less than 600 nM.

For the origin of these results see US20250206732A1, “COMPOUNDS AND METHODS FOR THE TARGETED DEGRADATION OF KRAS” (Arvinas Operations, Inc., priority 2022, published 2025).
